We go through two molecules from patent US4751295A, “Cephalosporin derivatives” (Bristol-Myers Company, priority 1986, dated 1988).

Molecules are shown by their SMILES. Converted amounts (≈) assume the structure as drawn.

One series relates to E. coli Juhl. Description: Protective Dose50 in mice, E. coli Juhl. Format: in vivo. The conditions noted are these: Escherichia coli, read-out: PD50, E. coli Juhl. As to the method: (§1) Table 2, below, gives the Protective Dose50 (PD50) in mice for a number of the compounds of Formula I against selected microorganisms. Table 3 gives blood levels of various compounds of Formula I upon intramuscular administration of the test compounds to mice at a dosage of 20 mg/kg.

Series [1] concerns Penicillinsensitive S. aureus (5 strains). Put plainly: MIC, two-fold serial agar dilution, group (G+)-Ia. Format: cell-based. The conditions noted are these: Staphylococcus aureus, read-out: Geometric Mean of MIC, (G+)-Ia. As to the method: (§2) In the primary evaluation of the compounds of this invention, the Minimum Inhibitory Concentrations (MIC's) of the compounds were determined by the two-fold serial agar dilution method in Mueller-Hinton agar against 32 strains of test organisms in six groups.
(G+)Ia: Penicillinsensitive S. aureus (5 strains)

For series [2], the system named is Cephalothinresistant E. coli (3 strains) and Kl. pneumoniae (2 strains). Description: MIC, two-fold serial agar dilution, group (G-)-Ib. Type of series: cell-based. The conditions noted are these: Escherichia coli, read-out: Geometric Mean of MIC, (G-)-Ib, Mueller-Hinton agar; 5 strains. Here is the method:
as §2
(G-)Ib: Cephalothinresistant E. coli (3 strains) and Kl. pneumoniae (2

Series [3] concerns Ps. aeruginosa (7 strains). Put plainly: MIC, two-fold serial agar dilution, group (G-)-III. Format: cell-based. The conditions noted are these: Pseudomonas aeruginosa, Mueller-Hinton agar, read-out: Geometric Mean of MIC, (G-)-III. As to the method: as §2
(G-)III: Ps. aeruginosa (7 strains)
For orientation: Agar dilution tests growth on a series of plates holding different concentrations.

For series [4], the system named is Cephalothinsensitive E. coli (2 strains), Kl. pneumoniae (1 strain) and Pr. mirabilis (2 strains). Put plainly: MIC, two-fold serial agar dilution, group (G-)-Ia. Type of series: cell-based. The conditions noted are these: Mueller-Hinton agar; 5 strains; read-out: Geometric Mean of MIC, (G-)-Ia. Here is the method:
as §2
(G+)Ia: Cephalothinsensitive E. coli (2 strains), Kl. pneumoniae (1
strain) and Pr. mirabilis (2 strains)

The test system of series [5] is Penicillinresistant S. aureus (5 strains). Description: MIC, two-fold serial agar dilution, group (G+)-Ib. Type of series: cell-based. The following applies: Staphylococcus aureus, Mueller-Hinton agar; 5 strains; read-out: Geometric Mean of MIC, (G+)-Ib. As to the method: as §2
(G+)Ib: Penicillinresistant S. aureus (5 strains)

In a further series the test system is S. aureus Smith. Put plainly: Protective Dose50 in mice, S. aureus Smith. Type of series: in vivo. The following applies: Staphylococcus aureus, read-out: PD50, S. aureus Smith. Here is the method: as §1
Series [6] relates to M. morganii (1 strain), Ent. cloacae (2 strains) and Ser. marcescens (2 strains). Description: MIC, two-fold serial agar dilution, group (G-)-II. Format: cell-based. The following applies: Mueller-Hinton agar; 5 strains; read-out: Geometric Mean of MIC, (G-)-II. As to the method:
as §2
(G-)II: M. morganii (1 strain), Ent. cloacae (2 strains) and Ser.

Another series concerns P. aeruginosa A9843A. Description: Protective Dose50 in mice, P. aeruginosa A9843A. Type of series: in vivo. The following applies: Pseudomonas aeruginosa, read-out: PD50, P. aeruginosa A9843A. Here is the method: as §1
Series [7] is described as follows: solubility of crystalline zwitterion in saline. Format: physicochemical. The conditions noted are these: crystalline zwitterion form.
Series [8] in a line: blood levels upon intramuscular administration to mice. The conditions noted are these: mouse, im, 20 mg/kg. Type of series: in vivo. As to the method:
as §1

`CON=C(C(=O)NC1C(=O)N2C(C(=O)[O-])=C(/C=C/C[n+]3cccc(C(N)=O)c3)CSC12)c1nsc(N)n1` (centres unmarked) [Compound I-1G, 7-[2-(5-Amino-1,2,4-thiadiazol-3-yl)-2-methoxyiminoacetamido]-3-[3-(3-carbamoylpyridinio)-1-propen-1-yl]-3-cephem-4-carboxylate]: the ED50 came out at 0.021 mg/kg with E. coli Juhl, 0.96 mg/kg in the series on S. aureus Smith and 5.92 mg/kg in the series on P. aeruginosa A9843A. The MIC in series [1] was found to be 0.2 mg/L (≈ 0.367 µM); in [2] it was 0.033 mg/L (≈ 0.0606 µM); in series [3] it was 1.4 mg/L (≈ 2.57 µM); in series [4], 0.0094 mg/L (≈ 0.0173 µM); in series [5] it was 0.35 mg/L (≈ 0.643 µM); in series [6], 0.1 mg/L (≈ 0.184 µM).
As to `CON=C(C(=O)NC1C(=O)N2C(C(=O)[O-])=C(/C=C/C[n+]3ccc(C(N)=O)cc3)CSC12)c1nsc(N)n1` (centres unmarked) [Compound I-1H, 7-[2-(5-Amino-1,2,4-thiadiazol-3-yl)-2-methoxyiminoacetamido]-3-[3-(4-carbamoylpyridinio)-1-propen-1-yl]-3-cephem-4-carboxylate], the “solubility in water (in words)” value in series [7] is “slightly soluble in water”. In series [7] (in saline at 23° C.), the solubility was 6 mg/mL (≈ 11000 µM). Moreover, the ED50 with E. coli Juhl stood at 0.015 mg/kg; in the series on S. aureus Smith, 0.39 mg/kg; in the series on P. aeruginosa A9843A, 3.9 mg/kg. Also, the MIC in series [1] worked out at 0.2 mg/L (≈ 0.367 µM); in [2], 0.043 mg/L (≈ 0.079 µM); in [3] it was 0.97 mg/L (≈ 1.78 µM); in series [4] it was 0.013 mg/L (≈ 0.0239 µM); in [5], 0.4 mg/L (≈ 0.735 µM); in [6], 0.1 mg/L (≈ 0.184 µM). Also, in series [8], the AUC was determined as 14 µg·h/mL. The molecule further gave a Cmax in series [8] of 23 µg/mL. For the same molecule, the half-life in series [8] amounted to 16 min.

Broadly, the MIC is the lowest concentration found to suppress growth. One may read the solubility as the concentration that dissolves in the medium under given conditions. One may read the AUC as the area under the concentration-time curve, a measure of exposure. The low end stands for low exposure, the high end for high exposure. The term Cmax denotes the peak of the concentration-time curve. For orientation: half-life means how long it takes for the measured level to halve. Read a low half-life as fast loss.
